Activity calls are given as the source filed them.
Assays:
[1] = molecular target: Luciferin 4-monooxygenase (Photinus pyralis, UniProt P08659); experiment: firefly luciferase enzyme inhibitors, dose response, biochemical, luminescence (AID 1891)
[2] = Luminescence Cell-Based Dose Confirmation HTS to Identify Inhibitors of Platelet Dense Granule Release. [Related pubchem assays: 1663 (Primary HTS), 1678 (Summary of Project)]; type: functional
[3] = NIH-3T3 fibroblast cytotoxicity, dose response, cytotoxicity control, cell-based, fluorescence, Alamar Blue, secondary assay (AID 2327); type: functional;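 further: NIH-3T3 mouse fibroblasts cultured with fluconazole at 8 µg/mL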
[4] = C. albicans growth with fluconazole, confirmation, fluorescence, retest (AID 2467); type: functional, cell-based
H9c2 = experiment: cells; type: functional, cell-based; conditions: Rattus norvegicus, H9c2, Myocardium;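 further: confirmatory concentration-response retest of ultra-high-throughput screening hits for modulation of myocardial damage; cell death induced by hydrogen peroxide oxidative stress; compound pretreatment for 60 min then peroxide exposure for 2 h; potency is for protecting the cells against peroxide damage rather than for killing them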
Large T antigen = Large T antigen (Simian virus 40, UniProt P03070); type: functional, Betapolyomavirus macacae;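 further: Confirmatory-stage PubChem screen for compounds that inhibit SV40 T antigen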
Chain of Large T antigen (P03070 whole entry): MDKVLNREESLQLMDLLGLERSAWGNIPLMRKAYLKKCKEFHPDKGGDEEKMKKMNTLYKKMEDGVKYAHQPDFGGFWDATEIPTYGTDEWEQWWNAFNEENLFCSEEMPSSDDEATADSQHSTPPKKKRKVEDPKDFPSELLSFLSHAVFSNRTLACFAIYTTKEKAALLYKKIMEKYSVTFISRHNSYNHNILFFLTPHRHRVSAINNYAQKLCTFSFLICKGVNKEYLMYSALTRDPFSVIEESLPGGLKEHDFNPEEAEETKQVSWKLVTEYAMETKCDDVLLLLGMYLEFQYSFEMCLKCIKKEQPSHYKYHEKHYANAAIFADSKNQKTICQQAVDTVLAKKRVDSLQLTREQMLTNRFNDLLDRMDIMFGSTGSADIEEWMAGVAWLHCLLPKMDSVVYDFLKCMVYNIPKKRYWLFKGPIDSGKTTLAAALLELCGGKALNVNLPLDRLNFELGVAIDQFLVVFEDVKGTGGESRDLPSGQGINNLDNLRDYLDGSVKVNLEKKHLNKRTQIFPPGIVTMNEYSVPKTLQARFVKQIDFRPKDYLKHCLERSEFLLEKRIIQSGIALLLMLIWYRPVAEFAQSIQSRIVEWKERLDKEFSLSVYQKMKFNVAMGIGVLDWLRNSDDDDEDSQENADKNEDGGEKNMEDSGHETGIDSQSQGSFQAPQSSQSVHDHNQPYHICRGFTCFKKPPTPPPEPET

cells = type: functional
[5] = Luminescence Cell-Based Dose Retest to Confirm Inhibitors of Cancer Stem Cells. [Related pubchem assays (depositor defined):AID2717, AID2721]; type: functional; conditions: Homo sapiens
[6] = growth suppression of PTEN-null colon cells, dose response, cell-based, HCT116 PTEN knockout (AID 1047); type: functional;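 further: HCT116 colon tumor cells with PTEN knocked out; cells exposed to compound for 60 hours before readout; potency for loss of cell viability measured by luminescence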
[7] = growth suppression of beta-catenin-knockout colon cells, dose response, cell-based, HCT116, human colon tumor (AID 1045); type: functional;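 further: HCT116 colon tumor cells with beta catenin knocked out; cells exposed to compound for 60 hours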
[8] = molecular target: T1, Rac GTPase-activating protein 1 (Homo sapiens, UniProt Q9H0H5); experiment: MgcRacGAP GTPase-activating activity inhibitors, confirmation, biochemical, ADP Hunter fluorescence, primary and confirmatory (AID 624330); type: functional
T1 sequence (Q9H0H5 whole entry): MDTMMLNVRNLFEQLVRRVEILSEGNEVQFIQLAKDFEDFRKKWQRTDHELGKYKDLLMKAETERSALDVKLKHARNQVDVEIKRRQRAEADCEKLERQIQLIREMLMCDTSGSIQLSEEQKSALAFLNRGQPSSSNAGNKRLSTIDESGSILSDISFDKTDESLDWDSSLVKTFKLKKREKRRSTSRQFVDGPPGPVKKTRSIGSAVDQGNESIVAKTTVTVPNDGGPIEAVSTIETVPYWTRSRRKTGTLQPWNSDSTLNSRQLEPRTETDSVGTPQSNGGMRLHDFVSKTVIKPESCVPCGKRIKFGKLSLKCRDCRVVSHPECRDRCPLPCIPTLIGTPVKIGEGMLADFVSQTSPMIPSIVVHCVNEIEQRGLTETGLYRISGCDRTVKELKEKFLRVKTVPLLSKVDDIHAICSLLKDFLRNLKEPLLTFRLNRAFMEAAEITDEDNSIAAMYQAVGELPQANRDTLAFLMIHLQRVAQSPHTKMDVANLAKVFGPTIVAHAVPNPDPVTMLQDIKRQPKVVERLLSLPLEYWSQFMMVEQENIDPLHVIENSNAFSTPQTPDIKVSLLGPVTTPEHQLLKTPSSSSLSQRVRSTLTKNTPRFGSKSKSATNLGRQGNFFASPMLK

[9] = molecular target: T2, RNA-binding protein pos-1 (Caenorhabditis elegans, UniProt G5EF15); experiment: inhibitors of POS-1/mex-3 RNA binding, dose response, biochemical, fluorescence polarization (AID 1964);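 further: purified POS-1 fused to maltose binding protein made in E. coli; potency of compounds blocking POS-1 binding to fluorescent RNA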
T2 sequence (G5EF15 whole entry): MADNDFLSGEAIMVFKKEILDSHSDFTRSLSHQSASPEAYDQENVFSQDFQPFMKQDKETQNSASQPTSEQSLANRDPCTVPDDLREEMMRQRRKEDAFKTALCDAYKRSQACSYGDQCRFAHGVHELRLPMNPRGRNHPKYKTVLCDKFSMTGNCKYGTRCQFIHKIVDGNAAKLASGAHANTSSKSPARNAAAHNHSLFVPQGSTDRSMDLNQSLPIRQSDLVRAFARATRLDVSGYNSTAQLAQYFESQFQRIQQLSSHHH

[10] = molecular target: T3, Zinc finger protein mex-5 (Caenorhabditis elegans, UniProt Q9XUB2); experiment: MEX-5/TCR-2 RNA interaction inhibitors, dose response, biochemical, C. elegans, fluorescence polarization (AID 1960)
T3 sequence (Q9XUB2 whole entry): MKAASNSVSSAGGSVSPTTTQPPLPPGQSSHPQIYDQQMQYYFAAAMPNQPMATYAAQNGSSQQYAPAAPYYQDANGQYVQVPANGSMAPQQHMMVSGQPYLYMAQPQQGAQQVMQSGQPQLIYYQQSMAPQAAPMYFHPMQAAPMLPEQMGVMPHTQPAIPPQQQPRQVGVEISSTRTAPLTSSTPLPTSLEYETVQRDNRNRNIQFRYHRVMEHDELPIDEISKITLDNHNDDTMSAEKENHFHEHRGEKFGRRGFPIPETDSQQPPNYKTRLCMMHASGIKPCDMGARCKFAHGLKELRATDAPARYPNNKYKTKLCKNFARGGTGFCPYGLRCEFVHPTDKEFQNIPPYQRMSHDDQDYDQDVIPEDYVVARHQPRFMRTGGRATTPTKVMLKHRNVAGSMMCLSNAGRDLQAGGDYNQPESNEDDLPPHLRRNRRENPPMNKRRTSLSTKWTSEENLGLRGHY

[11] = molecular target: T4, Polyadenylate-binding protein 1 (Homo sapiens, UniProt P11940); experiment: PABP1 MLLE–PAM2 interaction inhibitors, dose response, miRNA deadenylation inhibitor project, biochemical, fluorescence polarization, Cy5-PAM2 peptide, secondary (AID 602260); type: functional; conditions: read-out: IC50_Mean
T4 sequence (P11940 whole entry): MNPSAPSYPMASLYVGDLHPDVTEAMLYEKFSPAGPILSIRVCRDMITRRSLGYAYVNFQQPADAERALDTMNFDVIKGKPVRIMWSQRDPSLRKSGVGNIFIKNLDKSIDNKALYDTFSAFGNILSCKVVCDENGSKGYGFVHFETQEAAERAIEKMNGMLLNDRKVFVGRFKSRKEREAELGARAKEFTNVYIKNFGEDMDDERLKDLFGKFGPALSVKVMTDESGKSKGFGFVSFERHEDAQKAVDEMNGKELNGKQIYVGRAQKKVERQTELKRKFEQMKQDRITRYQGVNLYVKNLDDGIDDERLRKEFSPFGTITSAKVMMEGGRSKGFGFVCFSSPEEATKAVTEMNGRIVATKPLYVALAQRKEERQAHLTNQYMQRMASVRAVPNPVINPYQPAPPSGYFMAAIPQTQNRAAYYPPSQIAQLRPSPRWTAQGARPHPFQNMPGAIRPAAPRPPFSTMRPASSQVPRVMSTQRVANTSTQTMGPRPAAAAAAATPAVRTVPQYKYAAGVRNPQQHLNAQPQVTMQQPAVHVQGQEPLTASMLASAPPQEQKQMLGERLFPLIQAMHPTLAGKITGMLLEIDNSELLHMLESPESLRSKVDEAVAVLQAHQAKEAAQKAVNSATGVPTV

[12] = molecular target: T4, Polyadenylate-binding protein 1; experiment: PABP1 MLLE–PAM2 binding inhibitor potency, dose response, biochemical, fluorescence polarization, FITC-PAM2 peptide (AID 602259); type: functional; conditions: read-out: IC50_Mean
[13] = test system: Streptococcus sp. 'group A'; experiment: growth inhibition of control SK(-) GAS strain, dose response, counter-screen for streptokinase expression inhibitor project, luminescence, kanamycin, BacTiterGlo, confirmation (AID 1900); type: functional, organism-based
Streptokinase A = molecular target: T5, Streptokinase A (Streptococcus pyogenes serotype M1, UniProt P10520); experiment: S. pyogenes streptokinase expression inhibitors, potency, dose response, plasminogen activation absorbance, OD405 (AID 1914); type: functional, Streptococcus pyogenes M1 GAS;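 further: secreted streptokinase activity via plasminogen activation per viability signal from cell pellet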
T5 sequence (P10520 whole entry): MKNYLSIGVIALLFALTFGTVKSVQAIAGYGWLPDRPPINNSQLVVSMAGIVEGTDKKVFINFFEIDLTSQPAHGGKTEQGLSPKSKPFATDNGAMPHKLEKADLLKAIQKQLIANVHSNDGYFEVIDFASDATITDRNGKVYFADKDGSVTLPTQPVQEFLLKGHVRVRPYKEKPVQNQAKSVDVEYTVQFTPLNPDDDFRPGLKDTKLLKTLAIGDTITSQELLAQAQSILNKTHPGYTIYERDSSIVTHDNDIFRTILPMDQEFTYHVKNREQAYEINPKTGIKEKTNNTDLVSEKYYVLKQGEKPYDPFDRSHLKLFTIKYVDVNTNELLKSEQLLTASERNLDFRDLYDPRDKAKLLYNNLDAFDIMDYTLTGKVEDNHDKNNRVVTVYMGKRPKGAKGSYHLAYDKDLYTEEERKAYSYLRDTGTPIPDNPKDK

Streptococcus = experiment: Group A Streptococcus viability loss, dose response, counter-screen for streptokinase expression inhibitor project, luminescence, BacTiterGlo (AID 1915); type: functional, organism-based;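 further: potency for reduction of bacterial viability or growth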
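Wherever AC50 is given: cells exposed to compound for roughly 70 hours or longer before luminescence read.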

Chain of Luciferin 4-monooxygenase (P08659 whole entry): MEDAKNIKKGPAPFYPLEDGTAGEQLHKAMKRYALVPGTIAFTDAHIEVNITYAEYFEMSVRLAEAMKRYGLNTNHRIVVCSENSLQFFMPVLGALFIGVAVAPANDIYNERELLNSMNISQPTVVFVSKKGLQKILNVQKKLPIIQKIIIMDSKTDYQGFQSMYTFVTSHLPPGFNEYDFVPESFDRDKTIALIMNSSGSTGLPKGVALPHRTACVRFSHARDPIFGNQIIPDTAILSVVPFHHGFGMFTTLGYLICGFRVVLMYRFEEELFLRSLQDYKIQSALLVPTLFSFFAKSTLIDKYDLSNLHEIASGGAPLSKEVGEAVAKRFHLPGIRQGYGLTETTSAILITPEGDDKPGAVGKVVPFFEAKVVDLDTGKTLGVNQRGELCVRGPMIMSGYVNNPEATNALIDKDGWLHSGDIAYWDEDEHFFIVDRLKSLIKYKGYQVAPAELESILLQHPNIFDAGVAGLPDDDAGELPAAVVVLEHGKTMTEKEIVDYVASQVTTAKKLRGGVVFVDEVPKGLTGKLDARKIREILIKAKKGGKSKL

Compound: COc1ccc(CNC(=O)c2ccccc2NC(=O)C2=CSCCO2)c(OC)c1
- EC50 [1]: > 112 µM (not active)
- EC50 [2]: 15.7 µM (active)

Compound: CN1C2CCC1CC(NC(=O)CSc1ccc(Cl)cc1)C2 (centres undefined)
- EC50 [1]: > 112 µM (not active)
- EC50 [2]: > 112 µM (not active)

Compound: COC(=O)Cc1cc(=O)n(-c2nc3ccccc3s2)[nH]1
- EC50 [3]: > 150 µM (inactive)
- EC50 [4]: 21.7 µM (active)

Compound: Cc1cc(C)c2c(c1)cc(C)c1nnc(SCC(=O)Nc3ccccc3N3CCOCC3)n12
- EC50 [1]: > 112 µM (not active)
- EC50 [2]: > 112 µM (not active)

Compound: COc1ccc(Cl)cc1NC(=O)CN(C)C(=O)CCc1nc(O)c2ccccc2n1
- IC50 (H9c2): > 79 µM (inactive)

Compound: O=C(Nc1ccccc1F)c1cnc(O)nc1O
- EC50 [1]: > 112 µM (not active)
- EC50 [2]: > 112 µM (not active)

Compound: O=C1NC(=S)N=C1c1c(O)[nH]c2ccccc12
- EC50 [1]: > 112 µM (not active)
- EC50 [2]: > 112 µM (not active)

Compound: CC(CCc1ccccc1)NC(=O)CN1CCN(c2ccc(O)cc2)CC1 (centres undefined)
- EC50 [3]: 36.2 µM (active)

Compound: CC(=O)c1ccc(N2CCN(C(=O)c3cc(-c4cccnc4)nc4ccc(Br)cc34)CC2)cc1
- IC50 (H9c2): > 79 µM (inactive)

Compound: O=C(c1ccco1)N1CCN(C(=S)Nc2ccc(F)c(Cl)c2)CC1
- IC50 (Large T antigen): > 100 µM (active)

Compound: COc1ccc(NC(=O)c2ccc(-c3ccc([N+](=O)[O-])cc3)o2)cc1OC
- IC50 (cells): > 50 µM (active)

Compound: O=C(CCn1c(=O)oc2cc(Cl)ccc21)Nc1ccc(O)cc1
- IC50 (Large T antigen): 25.2 µM (active)

Compound: O=C(c1ccc(S(=O)(=O)N2CCOCC2)cc1)N1CCN(c2ccc(F)cc2)CC1
- EC50 [1]: > 112 µM (not active)
- EC50 [2]: 93.8 µM (active)

Compound: Cc1ccccc1C(C(=O)NCc1ccccc1)N(Cc1ccco1)C(=O)c1ccccn1 (centres undefined)
- IC50 (H9c2): > 79 µM (inactive)

Compound: Cc1ccc(NC(=O)c2cc(-c3cccs3)nc3ccccc23)nc1
- IC50 (H9c2): > 79 µM (inactive)

Compound: COc1cccc(OCC(=O)NNC(=O)C(=O)Nc2cccc(C)c2)c1
- IC50 (cells): 20.4 µM (active)

Compound: CCC(C)SCc1nc2ccccc2[nH]1 (centres undefined)
- EC50 [1]: > 112 µM (not active)
- EC50 [2]: > 112 µM (not active)

Compound: Cc1ccc(NC(=O)CO/N=C/c2ccccc2C)c(C)c1
- IC50 (cells): 50 µM (active)

Compound: Cc1ccc2c(c1)c1ncn(CCC3=CCCCC3)c(=O)c1n2C
- AC50 [5]: 1 µM (active)

Compound: CCn1c(SCC(=O)N2CCN(c3ccccc3)CC2)nc2c(c1=O)SC(C)C2 (centres undefined)
- IC50 (H9c2): 11.9 µM (active)

Compound: Cc1cc(OCC(=O)Nc2ccncc2)ccc1Br
- IC50 (cells): > 50 µM (active)

Compound: CC(C)(C)NC(=O)COC(=O)c1c2c(nc3ccccc13)CCC2
- IC50 (H9c2): 6.79 µM (active)

Compound: CN(C)c1ccc(N2CC(C)(C)C2=O)cc1
- IC50 (Large T antigen): 4.39 µM (active)

Compound: Nc1ccc(Nc2nc3ccccc3[nH]2)cc1
- IC50 (Large T antigen): 7.8 µM (active)

Compound: O=C(COc1ccccc1Cl)NNC(=O)Cn1[nH]c(=O)c2ccccc2c1=O
- IC50 (H9c2): > 79 µM (inactive)

Compound: O=C(NC(Cc1ccccc1)C(=O)NCc1ccccn1)c1ccco1 (centres undefined)
- EC50 [3]: > 150 µM (inactive)
- EC50 [4]: > 38 µM (not active)

Compound: C/C(CC(=O)Nc1ccc(N(C)C)cc1)=N\NC(=O)c1ccc(Cl)cc1Cl
- IC50 (Large T antigen): 9.26 µM (active)

Compound: COc1ccc(CCN2CC(C(=O)NCCc3ccccc3C(F)(F)F)CCC2=O)cc1 (centres undefined)
- EC50 [1]: > 112 µM (not active)
- EC50 [2]: > 112 µM (not active)

Compound: COc1cc(/C(C)=N/NC(=O)CSc2nc3ccccc3[nH]2)ccc1O
- IC50 (Large T antigen): 22.9 µM (active)

Compound: O=c1c2ccccc2nc(/C=C/c2ccc(Br)cc2)n1CCO
- AC50 [5]: 10.5 µM (active)

Compound: Cc1ccc(C)c(NC(=O)C(Sc2ncnc3ccccc23)c2ccccc2)c1 (centres undefined)
- EC50 [6]: 111 µM (active)
- EC50 [7]: 126 µM (active)
- IC50 (H9c2): 29.1 µM (active)

Compound: CCc1cccc(NC(=O)CN(C)S(=O)(=O)c2c[nH]cn2)c1
- EC50 [1]: > 112 µM (not active)
- EC50 [2]: > 112 µM (not active)

Compound: COC(=O)CC1SC(=O)NC1=Nc1ccc(O)cc1 (centres undefined)
- IC50 (Large T antigen): 16.8 µM (active)
- IC50 [8]: 52.9 µM (active)

Compound: COC(=O)c1ccc(/C=C/c2c(-c3ccc(OC)cc3)sc3ccccc23)cc1
- AC50 [5]: 3.79 µM (active)

Compound: CCCNC(=O)NC(=O)COc1ccc(-c2ccc(C#N)cc2)cc1
- IC50 (cells): 1.12 µM (active)

Compound: Cc1ccc(-c2nnc(O)c3ccccc23)cc1S(=O)(=O)NC(C)(C)C
- IC50 (H9c2): > 79 µM (inactive)

Compound: COc1cc(/C=N/NC(=O)c2cccc([N+](=O)[O-])c2)ccc1O
- IC50 (Large T antigen): 5.73 µM (active)
- IC50 [8]: 29 µM (active)

Compound: N#CC1=C(N)C2=C(N3CCCCC3)CCCC2C1(C#N)C#N (centres undefined)
- EC50 [9]: 89.4 µM (active)
- EC50 [10]: 77.1 µM (active)
- IC50 (Large T antigen): 9.99 µM (active)
- IC50 [11]: > 66 µM (inactive)
- IC50 [12]: > 66 µM (inactive)

Compound: Cc1ccc(OCCCCc2c(C)n[nH]c2C)cc1
- EC50 [13]: 16.3 µM (active)
- EC50 (Streptokinase A): > 150 µM (not active)
- EC50 (Streptococcus): > 150 µM (not active)
- IC50 (cells): 25.6 µM (active)

Compound: COc1ccc(N/C=C/C(=O)c2ccccc2)cc1
- EC50 [1]: 0.863 µM (active)
- EC50 [2]: < 0.701 µM (active)

Compound: O=C(NCCc1c[nH]c2ccccc12)C(=O)c1c[nH]c2ccccc12
- AC50 [5]: 1.48 µM (active)
